According to US7307081B2, “Piperidine derivatives useful as CCR5 antagonists” (priority 2002, dated 2007):
Where two headings read alike, the source gives them in different places.

Tested on: HIV-1 luciferase reporter virus (ADA-Luc-FL, YU-2-Luc-FL, HxB-Luc-FL) in U87-CD4-CCR5 cells
Test: Luciferase Replication Assay (HIV replication)
Assay type: cell-based
Method: Luciferase Replication Assay:
Plasmids encoding the full length genome of HIV-1 pNL-4-Luc with the gp 120 V-3 loop replaced by the Bgl II fragment of HIV-1 ADA, YU-2 or HxB (ADA-Luc-FL, YU-2-Luc-FL and HxB-Luc-FL) are obtained from Dr. Susan Pontow (Washington University, St. Louis Mo.). Replication-competent luciferase reporter virus stocks are generated by transfection of plasmids into 293T cells using Superfect (Qiagen) or Mirus transfection reagents. Viral stocks are collected 48 hours following transfection and titered for luciferase production on U-87-CCR5 or CXCR4 cells. U87-CD4-CCR5 cells (10^4/ well) are plated in 96-well cell culture plates and incubated overnight. Media is removed and replaced with 50 μl of fresh culture media (DMEM, 10% FCS) and 50 μl of compound diluted in culture medium. Cells are incubated with compound at 37° C. for 1 hour. The resultant supernatant is removed and replaced with 20 μl of media containing compound and infected with an equal volume of diluted or undiluted virus stock at 37° C. for 3-4 hours. The cells are washed once with DMEM, and 200 μl of media containing compound is added. The cultures are incubated for 3 days, the cells lysed in luciferase lysis buffer (Promega, Madison, Wis.) and transferred to Immulon plates (Dynex Technologies, Chantilly Va.). An equal volume of luciferase substrate (Promega, Madison Wis.) is added to lysates and the plates read immediately in a Wallac Luminometer. Fifty and ninety percent inhibitory concentrations are determined using GraphPad PRISM software.

[1] = Human immunodeficiency virus 1, U87/CD4/CCR5, 72 h, read-out: HIV Replication (Luciferase) IC50 nM, U87-CD4-CCR5 cells, replication-competent luciferase reporter virus, cultures incubated 3 days
[2] = read-out: HIV Replication (Luciferase) IC50 nM, U87-CD4-CCR5 cells, replication-competent luciferase reporter virus, cultures incubated 3 days

Cc1ncnc(C)c1C(=O)N1CCC(C)(N2CCN(C(Cc3ccccc3)C3CCCN(S(=O)(=O)C4CC4)C3)[C@@H](C)C2)CC1 (mixture of isomers) [Example 1]
IC50 [1]: 2 nM

Cc1ncnc(C)c1C(=O)N1CCC(C)(N2CCN([C@@H](c3cccc(F)c3)C3CCN(S(=O)(=O)C4CC4)C3)[C@@H](C)C2)CC1 (mixture of isomers) [Example 11]
IC50 [1]: 0.3 nM

COc1ccc(CN2CCCC([C@H](c3ccccc3)N3CCN(C4(C)CCN(C(=O)c5c(C)ncnc5C)CC4)C[C@@H]3C)C2)cc1 (stereo partly shown) [Example 8]
IC50 [1]: 1.6 nM

Cc1ncnc(C)c1C(=O)N1CCC(C)(N2CCN(C(c3ccccc3)C3CCCN(S(C)(=O)=O)C3)[C@@H](C)C2)CC1 (stereo partly shown) [Example 7]
IC50 [1]: 0.5 nM

Cc1ncnc(C)c1C(=O)N1CCC(C)(N2CCN([C@@H](c3cccc(F)c3)C3CN(S(=O)(=O)c4ccccc4)C3)[C@@H](C)C2)CC1 [Example 13]
IC50 [1]: 0.7 nM

Cc1ncnc(C)c1C(=O)N1CCC(C)(N2CCN([C@@H](Cc3ccccc3)C3CN(S(=O)(=O)c4ccccc4)C3)[C@@H](C)C2)CC1 [Example 17]
IC50 [1]: 0.4 nM

Cc1ncnc(C)c1C(=O)N1CCC(C)(N2CCN([C@@H](Cc3ccccc3)C3CN(C(=O)C4CC4)C3)[C@@H](C)C2)CC1 [Example 19]
IC50 [1]: 13 nM

Cc1ncnc(C)c1C(=O)N1CCC(C)(N2CCN([C@@H](c3cccc(F)c3)C3CN(S(C)(=O)=O)C3)[C@@H](C)C2)CC1 [Example 14]
IC50 [1]: 2 nM

Cc1ncnc(C)c1C(=O)N1CCC(C)(N2CCN(C(Cc3ccccc3)C3CCCN(S(=O)(=O)c4cccc(Cl)c4)C3)[C@@H](C)C2)CC1 (mixture of isomers) [Example 3]
IC50 [1]: 2 nM

Cc1ncnc(C)c1C(=O)N1CCC(C)(N2CCN([C@@H](c3ccccc3)C3CCCNC3)[C@@H](C)C2)CC1 (stereo partly shown) [Example 9]
IC50 [1]: 11 nM

COc1ccc(CN2CCCC(C(Cc3ccccc3)N3CCN(C4(C)CCN(C(=O)c5c(C)ncnc5C)CC4)C[C@@H]3C)C2)cc1 (mixture of isomers) [Example 2]
IC50 [1]: 25 nM

Cc1ncnc(C)c1C(=O)N1CCC(C)(N2CCN(C(c3ccccc3)C3CCCN(S(=O)(=O)C4CC4)C3)[C@@H](C)C2)CC1 (stereo partly shown) [Example 5]
IC50 [2]: 15 nM

Cc1ncnc(C)c1C(=O)N1CCC(C)(N2CCN([C@@H](Cc3ccccc3)C3CN(S(C)(=O)=O)C3)[C@@H](C)C2)CC1 [Example 18]
IC50 [1]: 17 nM

Cc1ncnc(C)c1C(=O)N1CCC(C)(N2CCN([C@@H](Cc3ccccc3)C3CN(S(=O)(=O)C4CC4)C3)[C@@H](C)C2)CC1 [Example 16]
IC50 [1]: 4 nM

Cc1ncnc(C)c1C(=O)N1CCC(C)(N2CCN([C@@H](c3cccc(F)c3)C3CN(S(=O)(=O)C4CC4)C3)[C@@H](C)C2)CC1 [Example 12]
IC50 [1]: 1 nM

Cc1ncnc(C)c1C(=O)N1CCC(C)(N2CCN(C(Cc3ccccc3)C3CCCNC3)[C@@H](C)C2)CC1 (mixture of isomers) [Example 4]
IC50 [1]: 4 nM

Cc1ncnc(C)c1C(=O)N1CCC(C)(N2CCN(C(c3ccccc3)C3CCCN(S(=O)(=O)C4CC4)C3)[C@@H](C)C2)CC1 (stereo partly shown) [Example 6]
IC50 [2]: 0.7 nM

Cc1ncnc(C)c1C(=O)N1CCC(C)(N2CCN(C(CC3CCN(S(=O)(=O)C4CC4)CC3)c3cccc(F)c3)[C@@H](C)C2)CC1 (stereo partly shown) [Example 10]
IC50 [1]: 3 nM

Cc1ncnc(C)c1C(=O)N1CCC(C)(N2CCN([C@@H](c3cccc(F)c3)C3CN(C(=O)C4CC4)C3)[C@@H](C)C2)CC1 [Example 15]
IC50 [1]: 5 nM
